# Assay results: US20140328809A1, “METHODS OF INDUCING CHONDROGENESIS IN MESENCHYMAL STEM CELLS USING SYNTHETIC TRITERPENOIDS” (TRUSTEES OF DARTMOUTH COLLEGE, priority 2011, published 2014)
# Tests used:
# [1] = tested on: newborn mouse calvaria; assay: Histological analysis (toluidine blue) of chondrogenesis in newborn mouse calvarial organ cultures; format: cell-based; settings: 200 nM, 7 days, FIG. 1a, at least 3 sets of replicate experiments
# Method: (§1) All chemicals were from Sigma-Aldrich. Primers for RT-PCR were from Applied Biosystems. The isolation of calvaria was essentially performed as described previously (Garrett, 2003; Garret et al., 2003). The calvaria were cultured in Biggers, Gwatkins, Judah medium supplemented with 1 mg/mL of bovine serum albumin (Cohn fraction V), 100 U/mL each of penicillin/streptomycin, and 0.292 mg/mL of glutaimine. On Day 1, the calvaria were treated with CDDO-Im or CDDO-EA. On Day 4, the medium was replaced with fresh medium, again containing either CDDO-Im or CDDO-EA. On Day 7, the calvaria were collected and either stored at −80° C. for further RNA analysis or fixed in 10% buffered formalin for 24 h and transferred to 80% ethanol for histological analysis.
# (§2) After fixation for 24 h, the calvaria were decalcified in EDTA, embedded in paraffin, and cut into 4 μm sections. The sections were stained either with modified hematoxylin and eosin or with toluidine blue (1% in 70% ethanol for 20 min, followed by destaining in 70%, 90%, and 100% ethanol for 15 seconds), placed in xylene twice, and then mounted (Garret, 2003). Procedures for immunofluroescence were performed essentially as previously described (Medici et al., 2010). […]
# [2] = tested on: BMPRII; assay: Quantitative RT-PCR analysis on calvaria: BMPRII; format: cell-based, mouse; settings: 7 days of culture, normalized to control = 1.00
# Method: as §1
# (§3) After 7 days of culture, RNA was isolated from the calvaria and quantitative RT-PCR analysis was performed for more than 15 different markers including: SOX9 (a transcription factor specific for cartilage), collagen type II (alpha 1), all three isoforms of TGF-β, BMPs 2 and 4, BMP receptor II, Smads 3, 4, 6, and 7, tissue inhibitors of metalloproteinases (TIMP-1 and TIMP-2), and matrix metalloproteinase-9 (MMP-9). […] Both triterpenoids are strong inhibitors of the expression of MMP-9; CDDO-EA (200 nM), caused almost 80% inhibition of the expression of this metalloproteinase, which is known to be involved in the degradation of cartilage (Shinoda et al., 2008).
# [3] = tested on: TGF-β3; assay: Quantitative RT-PCR analysis on calvaria: TGF-β3; format: cell-based, mouse; settings: 7 days of culture, normalized to control = 1.00
# Method: as §1, §3
# [4] = tested on: TIMP-2; assay: Quantitative RT-PCR analysis on calvaria: TIMP-2; format: cell-based, mouse; settings: 7 days of culture, normalized to control = 1.00
# Method: as §1, §3
# [5] = tested on: SOX9; assay: Western blot of chondrocyte marker SOX9 in bone marrow-derived MSCs; format: cell-based, human; settings: 100 nM for 7 days; MSCs in chondrogenic culture medium; not detectable in control
# Method: (§4) Human bone marrow-derived stromal cells (ScienCell Research Laboratories), which contain a population of responsive mesenchymal stem cells, were grown in mesenchymal stem cell medium (ScienCell Research Laboratories). MSCs were serum-starved 24 hours prior to all experimental conditions. The synthesis of the synthetic triterpenoids, CDDO-Im and CDDO-EA, have been previously described (Sporn et al., 2011).
# (§5) For directed chondrocytic differentiation, MSCs were grown in StemPro chondrogenic culture medium (Invitrogen) prepared by the technique of Kassem (2004), which is incorporated herein by reference. See also Medici et al. (2010), which is also incorporated herein by reference. CDDO-Im and CDDO-EA were added to the cultures at a concentration of 100 nM for 7 days. Western blot analysis was performed using the following antibodies at concentrations (and using protocols) recommended by the respective manufacturers: SOX9, COL2A1 (Santa Cruz Biotechnology), Aggrecan (Abcam), β-actin (Sigma-Aldrich). β-actin was used as a loading control. HRP-conjugated IgG TrueBlot reagents (eBioscience) were used at a dilution of 1:1000.
# [6] = tested on: MMP-9; assay: Quantitative RT-PCR analysis on calvaria: MMP-9; format: cell-based, mouse; settings: for MMP-9 expression (quantitative RT-PCR): 7 days of culture, normalized to control = 1.00
# Method: as §1, §3
# [7] = tested on: TGF-β1; assay: Quantitative RT-PCR analysis on calvaria: TGF-β1; format: cell-based, mouse; settings: 7 days of culture, normalized to control = 1.00
# Method: as §1, §3
# [8] = tested on: Smad7; assay: Quantitative RT-PCR analysis on calvaria: Smad7; format: cell-based, mouse; settings: 7 days of culture, normalized to control = 1.00
# Method: as §1, §3
# [9] = tested on: collagen type II (COL2A1); assay: Immunohistochemical analysis of collagen type II in calvaria; format: cell-based, mouse; settings: 200 nM, FIG. 1b
# Method: as §1, §2
# [10] = tested on: Smad3; assay: Quantitative RT-PCR analysis on calvaria: Smad3; format: cell-based, mouse; settings: 7 days of culture, normalized to control = 1.00
# Method: as §1, §3
# [11] = tested on: TIMP-1; assay: Quantitative RT-PCR analysis on calvaria: TIMP-1; format: cell-based, mouse; settings: 7 days of culture, normalized to control = 1.00
# Method: as §1, §3
# [12] = tested on: Col II alpha1; assay: Quantitative RT-PCR analysis on calvaria: Col II alpha1; format: cell-based, mouse; settings: 7 days of culture, normalized to control = 1.00
# Method: as §1, §3
# [13] = tested on: BMP-2; assay: Quantitative RT-PCR analysis on calvaria: BMP-2; format: cell-based, mouse; settings: 7 days of culture, normalized to control = 1.00
# Method: as §1, §3
# [14] = tested on: COL2A1; assay: Western blot of chondrocyte marker COL2A1 in bone marrow-derived MSCs; format: cell-based, human; settings: 100 nM for 7 days; MSCs in chondrogenic culture medium; not detectable in control
# Method: as §4, §5
# [15] = tested on: SOX-9; assay: Quantitative RT-PCR analysis on calvaria: SOX-9; format: cell-based, mouse; settings: 7 days of culture, normalized to control = 1.00
# Method: as §1, §3
# [16] = tested on: Smad4; assay: Quantitative RT-PCR analysis on calvaria: Smad4; format: cell-based, mouse; settings: 7 days of culture, normalized to control = 1.00
# Method: as §1, §3
# [17] = tested on: Smad6; assay: Quantitative RT-PCR analysis on calvaria: Smad6; format: cell-based, mouse; settings: 7 days of culture, normalized to control = 1.00
# Method: as §1, §3
# [18] = tested on: BMP-4; assay: Quantitative RT-PCR analysis on calvaria: BMP-4; format: cell-based, mouse; settings: 7 days of culture, normalized to control = 1.00
# Method: as §1, §3
# [19] = tested on: Aggrecan; assay: Western blot of chondrocyte marker Aggrecan in bone marrow-derived MSCs; format: cell-based, human; settings: 100 nM for 7 days; MSCs in chondrogenic culture medium; not detectable in control
# Method: as §4, §5
# [20] = tested on: TGF-β2; assay: Quantitative RT-PCR analysis on calvaria: TGF-β2; format: cell-based, mouse; settings: 7 days of culture, normalized to control = 1.00
# Method: as §1, §3
compound,measurement,setting,value
"CCNC(=O)[C@]12CCC(C)(C)C[C@H]1[C@H]1C(=O)C=C3[C@@]4(C)C=C(C#N)C(=O)C(C)(C)[C@@H]4CC[C@@]3(C)[C@]1(C)CC2 [CDDO-EA, CDDO-Ethyl amide]","induction of chondrogenesis (metachromatic toluidine blue purple staining, proteoglycans)",[1],marked ability to induce chondrogenesis
same,BMPRII expression (quantitative RT-PCR),[2]; 50 nM,1.50 ± 0.14
same,BMPRII expression (quantitative RT-PCR),[2]; 200 nM,1.71 ± 0.19
same,BMPRII expression (quantitative RT-PCR),[2]; 500 nM,2.24 ± 0.22
same,TGF-β3 expression (quantitative RT-PCR),[3]; 50 nM,1.39 ± 0.07
same,TGF-β3 expression (quantitative RT-PCR),[3]; 200 nM,1.56 ± 0.13
same,TGF-β3 expression (quantitative RT-PCR),[3]; 500 nM,1.44 ± 0.11
same,TIMP-2 expression (quantitative RT-PCR),[4]; 50 nM,1.78 ± 0.18
same,TIMP-2 expression (quantitative RT-PCR),[4]; 200 nM,2.44 ± 0.31
same,TIMP-2 expression (quantitative RT-PCR),[4]; 500 nM,4.09 ± 0.36
same,induction of SOX9 (Western blot),[5],clear induction
same,MMP-9 expression (quantitative RT-PCR),[6]; 50 nM,0.49 ± 0.09
same,MMP-9 expression (quantitative RT-PCR),[6]; 200 nM,0.22 ± 0.03
same,inhibition of the expression of MMP-9,"[6]; 200 nM, RT-PCR",~80%
same,MMP-9 expression (quantitative RT-PCR),[6]; 500 nM,0.19 ± 0.06
same,TGF-β1 expression (quantitative RT-PCR),[7]; 50 nM,1.17 ± 0.09
same,TGF-β1 expression (quantitative RT-PCR),[7]; 200 nM,1.47 ± 0.24
same,TGF-β1 expression (quantitative RT-PCR),[7]; 500 nM,1.74 ± 0.17
same,Smad7 expression (quantitative RT-PCR),[8]; 50 nM,1.28 ± 0.10
same,Smad7 expression (quantitative RT-PCR),[8]; 200 nM,1.86 ± 0.19
same,Smad7 expression (quantitative RT-PCR),[8]; 500 nM,3.06 ± 0.28
same,"formation of collagen type II (COL2A1), red fluorescence",[9],induce the formation of collagen type II
same,Smad3 expression (quantitative RT-PCR),[10]; 50 nM,1.14 ± 0.12
same,Smad3 expression (quantitative RT-PCR),[10]; 200 nM,1.35 ± 0.07
same,Smad3 expression (quantitative RT-PCR),[10]; 500 nM,1.93 ± 0.16
same,TIMP-1 expression (quantitative RT-PCR),[11]; 50 nM,1.88 ± 0.34
same,TIMP-1 expression (quantitative RT-PCR),[11]; 200 nM,2.85 ± 0.38
same,TIMP-1 expression (quantitative RT-PCR),[11]; 500 nM,4.65 ± 0.38
same,Col II alpha1 expression (quantitative RT-PCR),[12]; 50 nM,4.12 ± 1.78
same,Col II alpha1 expression (quantitative RT-PCR),[12]; 200 nM,5.45 ± 1.13
same,Col II alpha1 expression (quantitative RT-PCR),[12]; 500 nM,3.18 ± 0.71
same,BMP-2 expression (quantitative RT-PCR),[13]; 50 nM,1.53 ± 0.20
same,BMP-2 expression (quantitative RT-PCR),[13]; 200 nM,2.52 ± 0.29
same,BMP-2 expression (quantitative RT-PCR),[13]; 500 nM,5.66 ± 0.67
same,induction of COL2A1 (Western blot),[14],clear induction
same,SOX-9 expression (quantitative RT-PCR),[15]; 50 nM,1.64 ± 0.17
same,SOX-9 expression (quantitative RT-PCR),[15]; 200 nM,2.62 ± 0.33
same,SOX-9 expression (quantitative RT-PCR),[15]; 500 nM,3.12 ± 0.38
same,Smad4 expression (quantitative RT-PCR),[16]; 50 nM,1.06 ± 0.03
same,Smad4 expression (quantitative RT-PCR),[16]; 200 nM,1.37 ± 0.12
same,Smad4 expression (quantitative RT-PCR),[16]; 500 nM,1.89 ± 0.12
same,Smad6 expression (quantitative RT-PCR),[17]; 50 nM,1.09 ± 0.04
same,Smad6 expression (quantitative RT-PCR),[17]; 200 nM,1.77 ± 0.24
same,Smad6 expression (quantitative RT-PCR),[17]; 500 nM,2.85 ± 0.31
same,BMP-4 expression (quantitative RT-PCR),[18]; 50 nM,1.28 ± 0.12
same,BMP-4 expression (quantitative RT-PCR),[18]; 200 nM,1.47 ± 0.13
same,BMP-4 expression (quantitative RT-PCR),[18]; 500 nM,2.49 ± 0.35
same,induction of Aggrecan (Western blot),[19],clear induction
same,TGF-β2 expression (quantitative RT-PCR),[20]; 50 nM,1.36 ± 0.13
same,TGF-β2 expression (quantitative RT-PCR),[20]; 200 nM,1.61 ± 0.11
same,TGF-β2 expression (quantitative RT-PCR),[20]; 500 nM,1.88 ± 0.09
